From publication PMC10822168, “Development of potent isoflavone-based formyl peptide receptor 1 (FPR1) antagonists and their effects in gastric cancer cell models” (European journal of medicinal chemistry, 2023) come the findings set out here.

Data set [1] in a line: in vitro. Conditions: rat, pH 7.4.
Data set [2] concerns the target T1, human FPR1 (Homo sapiens, UniProt P21462).
T1 sequence (P21462 1-350): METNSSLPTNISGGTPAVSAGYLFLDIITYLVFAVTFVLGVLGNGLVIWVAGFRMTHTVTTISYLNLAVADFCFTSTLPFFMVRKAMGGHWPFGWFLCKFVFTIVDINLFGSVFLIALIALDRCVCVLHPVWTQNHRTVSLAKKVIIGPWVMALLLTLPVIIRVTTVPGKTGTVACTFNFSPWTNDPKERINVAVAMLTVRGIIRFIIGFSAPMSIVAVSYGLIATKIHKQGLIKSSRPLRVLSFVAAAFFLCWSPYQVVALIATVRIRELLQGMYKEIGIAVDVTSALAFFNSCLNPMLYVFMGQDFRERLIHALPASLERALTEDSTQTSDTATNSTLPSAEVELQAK
Briefly: Antagonist effect on Ca2+ mobilization in FPR1-HL60 transfected cells. Conditions: inhibition of Ca2+ mobilization induced by 5 nM fMLF, N.A. = Not Active; for IC50: read-out: FPR1-HL60 (IC50). For orientation: A change in cytosolic calcium serves as a functional read-out for many receptors and channels.

Data set [3] deals with NCl–N87 cells. In words: Muse Ki67 proliferation assay in NCl–N87 cells. The data set is classed as cell-based, human. Conditions: NCl–N87, 5 μM, 24 h; control cells 81.3%.
Protocol: Representative flow cytometry charts reporting percentage of Ki67 negative (blue) and positive (red) cells (panel A). Statistical charts reporting the results from three independent experiments and expressed as means ± SD (panel B). Statistical analysis was assessed by comparing the values obtained using single drug treatment to those of corresponding untreated cells and the combined treatments to those of the single treatments, *p < 0.05; **p < 0.001; ***p < 0.0001.
The Muse Ki67 Proliferation Assay was used with the Guava Muse Cell Analyzer according to manufacturer’s instructions (Luminex Corporation, Austin, USA). Briefly, the cells were stained after fixation and permeabilization procedures by using Hu Ki67 or Hu IgG1 control fluorochrome-conjugated antibodies to distinguish Ki67^+ or Ki67^− cells, respectively. The software provided the percentage of both Ki67(+) and Ki67(−) cells.
Data set [4] deals with NCl–N87 cells. Briefly: MTT viability assay in NCl–N87 cells. The data set is classed as cell-based. The conditions noted are these: Homo sapiens. An excerpt: (§1) We decided to study, for the first time, the effect of pharmacological blockade of FPR1 on cell proliferation, cell migration, and angiogenesis in GC by using our antagonists 24a and 25a. We first assessed the expression levels of FPR1 and FPR2 mRNA in four GC cell lines, i.e., HGC27, derived from human gastric carcinoma, KATOIII, AGS, and NCl–N87, derived from human gastric adenocarcinoma. […] We first assessed the effect of compounds 24a and 25a on cell viability in both cell lines at 24, 48, and 72 h using the MTT assay (Table 2).
(§2) AGS and NCl–N87 human gastric cancer cell lines were purchased and authenticated by American Type Culture Collection (Manassas, Virginia, USA). All cell culture components were purchased from Sigma-Aldrich (Milan, Italy) and Celbio s.r.l. (Milano, Italy).
(§3) AGS and NCl–N87 human gastric cancer cell lines were grown in RPMI high glucose supplemented with 10% fetal bovine serum, 2 mM glutamine, 100 U/mL penicillin, 100 μg/mL streptomycin, in a humidified incubator at 37 °C with a 5% CO2 atmosphere.
(§4) Determination of cell growth was performed using the MTT assay at 24h, 48 h, and 72 h. On day 1, 5000 cells/well were seeded into 96-well plates in a volume of 100 μL. On day 2, the test compound was added at different concentrations. In all the experiments, the solvent used to dissolve the drug (ethanol, DMSO) was added in each control to evaluate possible cytotoxicity. After the established incubation time with drugs, MTT (0.5 mg/mL) was added to each well. Following 3 h incubation at 37 °C, the supernatant was removed. The formazan crystals were solubilized using 100 μL of DMSO and the absorbance values at 570 and 630 nm were determined on a Victor 3 microplate reader (PerkinElmer).
For orientation: Tetrazolium dyes change colour on reduction, which living cells bring about.

The subject of data set [5] is AGS cells. In words: MTT viability assay in AGS cells. The data set is classed as cell-based. The conditions noted are these: Homo sapiens.
Text: as §1, §2, §3, §4

Data set [6] relates to VEGFA mRNA. Briefly: Real-time PCR of VEGFA mRNA expression in NCl–N87 and AGS cells. The data set is classed as cell-based, human. The conditions noted are these: 24 h, fMLF 10 nM, antagonists 1 or 2 μM, normalized to GAPDH, untreated = 1. The text has this:
(§5) It has been reported that FPR1 can exert a tumor suppressor function in human GC by inhibiting angiogenesis and that silencing of the receptor increases the constitutive proangiogenic potential of GC cells. Therefore, we assessed the effect of 24a and 25a on the mRNA expression level and secretion of the proangiogenic factors, the vascular growth factor A (VEGFA), and the angiopoietin 2. […] These effects were more pronounced in NCl–N87 cells and resulted more strongly for 25a than 24a. The values obtained after each treatment were normalized to the expression of GAPDH and compared to the reference value of the two genes in untreated cells, which were set equal to 1 (Fig. 9).
(§6) Fig. 9. Effect of 24a and 25a on mRNA expression of VGFA and ANGPT2 in NCl–N87 and AGS cell lines. Real-time PCR experiments in NCl–N87 and AGS cells with specific primers for VEGFA and ANGPT2 genes. The mRNA expression was normalized on the GAPDH housekeeping gene. Expression analysis was performed after treatment with fMLF (10 nM) and 24a or 25a (1, 2, 5 μM) administrated alone or combining the lowest dose of 24a or 25a with fMLF. All expression values were calculated against the value of untreated PTX-sensitive cells, set equal to 1. Statistical analysis was assessed by comparing the values obtained using single drug treatment to those of corresponding untreated cells and the combined treatments to those of single treatments. The values of untreated PTX-resistant cells were compared with those of untreated PTX-sensitive ones. Data were mean ± SD (n = 3). *p < 0.05, **p < 0.001, ***p < 0.0002, ****p < 0.0001.
(§7) Total RNA was extracted from FPR1 antagonist-treated NCl–N87 and AGS treated cells using the Qiagen RNeasy Mini Kit (Qiagen, Hilden, Germany) following the manufacturer’s instructions. Samples were retro-transcribed using the iScript Advanced cDNA Synthesis Kit (Bio-Rad Laboratories, California, USA). Real-Time-PCRs analyzed cDNA samples for the evaluation of VEGFA and ANGPT2 expression. […] Relative quantification was performed using the ddCT method.
For orientation: Quantitative PCR measures a nucleic acid by following its amplification.

Data set [7] relates to ANGPT2 mRNA. Briefly: Real-time PCR of ANGPT2 mRNA expression in NCl–N87 and AGS cells. The format is cell-based, human. The conditions noted are these: 24 h, fMLF 10 nM, antagonists 1 or 2 μM, normalized to GAPDH, untreated = 1.
Text: as §5, §6, §7

Setting [8] is: 48 h, read-out: NCl–N87 EC50 (μM ± S.E.M.) 48 h.
[9] abbreviates: read-out: NCl–N87 EC50 (μM ± S.E.M.) 24 h, 24 h.
[10] abbreviates: read-out: NCl–N87 EC50 (μM ± S.E.M.) 72 h, 72 h.
Where [11] appears, read: 48 h, read-out: AGS EC50 (μM ± S.E.M.) 48 h.
Where [12] appears, read: read-out: AGS EC50 (μM ± S.E.M.) 24 h, 24 h.
Where [13] appears, read: read-out: AGS EC50 (μM ± S.E.M.) 72 h, 72 h.

The structures appear in SMILES notation. Where two headings read alike, the source gives them in different places.

As a reminder, the amount remaining is the share of the starting amount still present when the sample was taken. Read a high amount remaining as greater stability. Broadly, the IC50 is the concentration needed to halve the response being measured. As usually defined, the EC50 is the concentration giving half of the maximal effect.

Compound `CCCCCCc1cc2c(=O)c(-c3ccccc3OC)c(C)oc2cc1OCC(F)F` [Compound 30, 7-(2,2-Difluoroethoxy)-6-hexyl-3-(2-methoxyphenyl)-2-methyl-4H-chromen-4-one] registered a fraction remaining at 0.5 h, 10 µM in data set [1] (rat liver microsomes) of 18%.

For the compound `CCCc1cc2c(=O)c(-c3ccccc3OC)c(C)oc2cc1NC(C)=O` [Compound 36, N-[3-(2-methoxyphenyl)-2-methyl-4-oxo-6-propyl-4H-chromen-7-yl]acetamide], the share remaining at 0.5 h, 10 µM in data set [1] (rat liver microsomes) stood at 15%.

For `CCCCCCC(=O)Oc1cc2oc(C)c(-c3cccc(OC)c3)c(=O)c2cc1C` [Compound 37b, 3-(3-Methoxyphenyl)-2,6-dimethyl-4-oxo-4H-chromen-7-yl heptanoate], in data set [2], the IC50 was found to be 21.9 ± 6.5 µM.

With `CCCCCCc1cc2c(=O)c(-c3ccccc3OC)c(C)oc2cc1OC(C)=O` [Compound 24a, 6-Hexyl-3-(2-methoxyphenyl)-2-methyl-4-oxo-4H-chromen-7-yl acetate], the “percentage of Ki67(+) cells” value in data set [3] came out at 73.1%. The EC50 in data set [4] (setting [8]) stood at 8.65 ± 0.65 µM; in data set [4] (setting [9]), 32.9 ± 2.95 µM; in data set [4] (setting [10]) it was 11.5 ± 1.2 µM; in data set [5] (setting [11]), 11 ± 1.91 µM; in data set [5] (setting [12]), 24.7 ± 4 µM; in data set [5] (setting [13]), 7.55 ± 1.75 µM. For the same compound, in data set [6], the “VEGFA mRNA expression” value is given as “dose-dependent increase”. In addition, in data set [7], the “angiopoietin 2 (ANGPT2) mRNA expression” value was “dose-dependent increase”.

For the compound `CCCCCCc1cc2c(=O)c(-c3ccccc3OC)c(C(F)(F)F)oc2cc1OC(C)=O` [Compound 25a, 6-Hexyl-3-(2-methoxyphenyl)-4-oxo-2-(trifluoromethyl)-4H-chromen-7-yl acetate], the EC50 in data set [4] (setting [8]) is 10.2 ± 1 µM; in data set [4] (setting [9]), 13.3 ± 1.88 µM; in data set [4] (setting [10]), 2.65 ± 0.5 µM; in data set [5] (setting [11]), 8 ± 0.1 µM; in data set [5] (setting [12]), 16.7 ± 0.7 µM; in data set [5] (setting [13]) it was 5.45 ± 3.45 µM. Further, in data set [6], the “VEGFA mRNA expression” value is listed as “dose-dependent increase”. In addition, the “angiopoietin 2 (ANGPT2) mRNA expression” value in data set [7] is “dose-dependent increase”.

On to `CCCCCc1cc2c(=O)c(-c3ccccc3OC)c(C)oc2cc1OC(C)=O` [Compound 29, 3-(2-Methoxyphenyl)-2-methyl-4-oxo-6-pentyl-4H-chromen-7-yl acetate], for which, in data set [2], the IC50 turned out to be 0.4 ± 0.1 µM.

On to `CCCc1cc2c(=O)c(-c3cccc(OC)c3)c(C)oc2cc1OC(C)=O` [Compound 26b, 3-(3-Methoxyphenyl)-2-methyl-4-oxo-6-propyl-4H-chromen-7-yl acetate], for which the IC50 in data set [2] amounted to 0.15 ± 0.05 µM.

`CCCCc1cc2c(=O)c(-c3ccccc3OC)c(C)oc2cc1OC(C)=O` [Compound 28, 6-Butyl-3-(2-methoxyphenyl)-2-methyl-4-oxo-4H-chromen-7-yl acetate]: the IC50 in data set [2] is 0.8 ± 0.3 µM.

In the case of `CCCCCCc1cc2c(=O)c(-c3cccc(OC)c3)c(C(F)(F)F)oc2cc1OC(C)=O` [Compound 25b, 6-Hexyl-3-(3-methoxyphenyl)-4-oxo-2-(trifluoromethyl)-4H-chromen-7-yl acetate], the IC50 in data set [2] was 0.16 ± 0.03 µM.

With `CCCCCCc1cc2c(=O)c(-c3ccccc3OC)c(C)oc2cc1NC(C)=O` [Compound 35a, N-[6-Hexyl-3-(2-methoxyphenyl)-2-methyl-4-oxo-4H-chromen-7-yl]acetamide], the share remaining at 0.5 h, 10 µM in data set [1] (rat liver microsomes) stood at 14%.

On to `CCCc1cc2c(=O)c(-c3ccccc3OC)c(C)oc2cc1OC(=O)N(C)C` [Compound 39, 3-(2-Methoxyphenyl)-2-methyl-4-oxo-6-propyl-4H-chromen-7-yl dimethylcarbamate], for which, in data set [2], the “FPR1-HL60 (IC50, μM)” value is “practically inactive” and the IC50 came out at 28.9 ± 7.6 µM. The compound further registered an amount remaining at 0.5 h, 10 µM in data set [1] (Liver) of 10%.
